Assay results reported in patent publication US20170021002A1, “AUGMENTATION OF CANCER AND CANCER ENDOTHELIAL VACCINE IMMUNOGENICITY BY HISTONE DEACETYLASE INHIBITORS” (Batu Biologics, Inc., priority 2015, published 2017).

Experiments:
[1] = test system: allogeneic responding lymphocytes (responder PBMC); assay: Mixed lymphocyte reaction, proliferation by [3H]-thymidine incorporation; type: cell-based, human; conditions: placental endothelial stimulator cells pretreated with the agent; FIG. 1a
Experimental: (§1) Peripheral blood mononuclear cells (PBMC) were isolated from buffy coats of healthy blood donors (Sanquin, Rotterdam, the Netherlands) by density gradient centrifugation using Ficoll-Paque PLUS (density 1.077 g/ml; GE Healthcare, Uppsala, Sweden). Cells were frozen at −150° C. until further use in RPMI-1640 medium with GlutaMAX™-I (Life Technologies) supplemented with 1% P/S, 10% human serum (Sanquin) and 10% dimethylsulphoxide (DMSO; Merck, Hohenbrunn, Germany).
(§2) Mixed lymphocyte reactions (MLR) were set up with 5×10^5 responder PBMC and 5×10^3 (1:100), 5×10^4 (1:10), […] γ-irradiated (10 Gy) ValloVax™ cells in round-bottomed 96-well plates (Nunc, Roskilde, Denmark). MLR were cultured in MEM-α supplemented with 2 mM L-glutamine, 1% P/S and 10% heat-inactivated human serum for 4 days in a humidified atmosphere with 5% CO2 at 37° C.
Cell proliferation was assessed by thymidine incorporation, [^3H]-thymidine (0.25 μCi/well; PerkinElmer, Groningen, the Netherlands) was added on day 4, incubated for 8 h and its incorporation was measured using the Wallac 1450 MicroBeta Trilux (PerkinElmer).
It was previously reported that ValloVax™, a placental endothelial derived cellular vaccine stimulates immunity to proliferating endothelium, resulting in tumor regression. […]

LLC cells = assay: Ex vivo cytotoxicity of NK cells from in vivo valproic acid treated mice to LLC cells; type: cell-based; conditions: NK cells isolated from in vivo valproic acid treated mice
ValloVax™ cells [2] = assay: Viability of ValloVax™ stimulator cells in MLR (CellTiter); type: cell-based, human; conditions: ValloVax™ cells treated with VPA, cultured with allogeneic responding cells, FIG. 2
Experimental: Cells were incubated with or without 1 mM VPA for 48 hours.
Depletion of T cells, B cells and NK cells was performed with Magnetic Activated Cell (MACS) isolation kits from Milteny Biotec following the manufacturer's instructions.
Viability was assessed by CellTiter Viability kit from Promega following the manufacturer's instructions.
as §2

[3] = test system: mixed lymphocyte reaction (PBMC with ValloVax™ cells); assay: Cytokine ELISA of mixed lymphocyte reaction supernatants; type: cell-based, human; conditions: ValloVax™ treated with VPA
Experimental: as §1, §2
For cytokine analysis supernatant was collected on day two of culture and analyzed by ELISA (R & D Systems) as per manufacturer's instructions.

ValloVax™ cells [4] = assay: Ex vivo cytotoxicity of NK cells from in vivo valproic acid treated mice to ValloVax™ cells; type: cell-based; conditions: NK cells isolated from in vivo valproic acid treated mice
[5] = test system: ValloVax™ cells cultured with NK-92 cells; assay: Killing of VPA treated ValloVax™ cells by NK-92 cell line; type: cell-based, human; conditions: FIG. 4
Experimental: Cells were incubated with or without 1 mM VPA for 48 hours. NK-92 cells were added to the target cells as effector cells, and the cells were co-cultured for 4 h 37° C. To block NKG2D on NK-92 cells, 10 μg/ml anti-NKG2D mAb or mouse IgG1 isotype control antibody were added to the NK cells 30 min before co-culture. Viability was assessed by CellTiter Viability kit from Promega following the manufacturer's instructions.

[6] = test system: Lewis Lung Carcinoma (LLC); assay: Established Lewis Lung Carcinoma tumor model; type: in vivo, C57BL/6 mice; conditions: for antitumor activity / efficacy: VPA systemically administered (100 mg/kg intraperitoneally every third day) to animals receiving ValloVax™, 100 mg/kg; for antitumor activity / efficacy / tumor killing activity / therapeutic efficacy: FIG. 5; for tumor killing activity / therapeutic efficacy: ValloVax™ pretreated in vitro with VPA, compared to standard ValloVax™, LLC bearing mice
From the text: Female C57BL/6 aged 8-12 weeks were purchased from The Jackson Laboratory. Animals were housed under conventional conditions at the Animal Care Facility, Institute for Cellular Immunology, and were cared for in accordance with the guidelines established by the Canadian Council on Animal Care. Lewis Lung Carcinoma (LLC), a murine lung carcinoma originating from C57/BL6 mice was obtained from American Type Culture Collection (ATCC). The cells were maintained in RPMI1640 supplemented with 10% fetal bovine serum, 2 mM glutamine (Gibco-BRL, Life Technologies, Inc.) and were passaged by trypsinization once cells reached 75% confluence. The cell line was cultured at 37°0 C. in a 5% CO2 incubator under fully humidified conditions.
For induction of tumor growth, 5×10^5 LLC cells, American Type Culture Collection (Manassas, Va.) cells were injected subcutaneously into the hind limb flank. Four weekly vaccinations of 5×10^5 test cells were administered subcutaneously on the contralateral side to which tumors were administered. Tumors were allowed to grow for 2 weeks, subsequently to which one injection of ValloVax™ or VPA-pretreated ValloVax™ was given. Valproic acid was administered every third day at a concentration of 100 mg/kg intraperitoneally. Tumor growth was assessed every 3 days by two measurements of perpendicular diameters by a caliper, and animals were sacrificed when tumors reached a size of 1 cm in any direction. Tumor volume was calculated by the following formula: (the shortest diameter^2×the longest diameter)/2.

[7] = test system: non-small cell lung cancer (NSCLC); conditions: patients diagnosed with metastatic disease; cited from earlier work

In the case of `CCCC(CCC)C(=O)O` [VPA, Valproic acid], the “Proliferation of allogeneic responding lymphocytes (allostimulatory activity)” value [1] is reported as “not”, the “cytotoxicity of NK cells to LLC cells” value (LLC cells) is reported as “enhanced cytotoxicity” and the “viability of the ValloVax™ cells in MLR” value (ValloVax™ cells [2]) is reported as “dose-dependent loss of viability”. For the same molecule, the “viability of the ValloVax™ cells in MLR” value (ValloVax™ cells [2]; listed as valproic acid) was “killing of ValloVax™ in vitro by an NK cell dependent mechanism”, the “IL-10 in MLR” value ([3]; FIG. 1d) was “no significant upregulation” and the “production of IFN-gamma in MLR” value ([3]; supernatants from MLR at 48 hours, FIG. 1b) was “substantially increased”. The “production of IL-18 in MLR” value ([3]; supernatants from MLR at 48 hours, FIG. 1c) was “substantially increased”, the “cytotoxicity of NK cells to ValloVax™ cells ex vivo” value (ValloVax™ cells [4]) was “enhanced cytotoxicity” and the “toxicity to VPA treated ValloVax™ cells” value [5] was “toxicity was observed”. For the same molecule, the “antitumor activity / efficacy” value [6] was “synergistic antitumor activity”, the “antitumor activity / efficacy” value ([6]; listed as valpoic acid) was “enhanced antitumor efficacy” and the “antitumor activity / efficacy” value ([6]; listed as valproic acid) was “augmented efficacy against lung cancer”. For the same molecule, the “tumor killing activity / therapeutic efficacy” value [6] was “did not significantly augment”, the “tumor killing activity / therapeutic efficacy” value ([6]; listed as valproic acid) was “did not augment in vivo efficacy” and the Survival ([6]; in vivo administration of VPA and ValloVax, established lung cancer model) was “Significantly Enhances Survival”.

For `Nc1nc2[nH]cc(CCc3ccc(C(=O)N[C@@H](CCC(=O)O)C(=O)O)cc3)c2c(=O)[nH]1` [pemetrexed], the “median overall survival (OS)” value [7] is given as 17 months.

B1: interferon gamma: cytokine used to pretreat placental endothelial cells (100 IU per ml) (protein, UniProt P01579 24-161, looked up)
Interferon gamma: QDPYVKEAENLKKYFNAGHSDVADNGTLFLGILKNWKEESDRKIMQSQIVSFYFKLFKNFKDDQSIQKSVETIKEDMNVKFFNSNKKKRDDFEKLTNYSVTDLNVQRKAIHELIQVMAELSPAAKTGKRKRSQMLFRG
In the case of B1, the “Proliferation of allogeneic responding lymphocytes (allostimulatory activity)” value [1] is reported as “substantially enhanced”.
